Biological target: T1, Msh2–Msh6 (Saccharomyces cerevisiae, UniProt P25847+Q03834, P25847:K694M)
T1 sequence (P25847 1-964 K694M): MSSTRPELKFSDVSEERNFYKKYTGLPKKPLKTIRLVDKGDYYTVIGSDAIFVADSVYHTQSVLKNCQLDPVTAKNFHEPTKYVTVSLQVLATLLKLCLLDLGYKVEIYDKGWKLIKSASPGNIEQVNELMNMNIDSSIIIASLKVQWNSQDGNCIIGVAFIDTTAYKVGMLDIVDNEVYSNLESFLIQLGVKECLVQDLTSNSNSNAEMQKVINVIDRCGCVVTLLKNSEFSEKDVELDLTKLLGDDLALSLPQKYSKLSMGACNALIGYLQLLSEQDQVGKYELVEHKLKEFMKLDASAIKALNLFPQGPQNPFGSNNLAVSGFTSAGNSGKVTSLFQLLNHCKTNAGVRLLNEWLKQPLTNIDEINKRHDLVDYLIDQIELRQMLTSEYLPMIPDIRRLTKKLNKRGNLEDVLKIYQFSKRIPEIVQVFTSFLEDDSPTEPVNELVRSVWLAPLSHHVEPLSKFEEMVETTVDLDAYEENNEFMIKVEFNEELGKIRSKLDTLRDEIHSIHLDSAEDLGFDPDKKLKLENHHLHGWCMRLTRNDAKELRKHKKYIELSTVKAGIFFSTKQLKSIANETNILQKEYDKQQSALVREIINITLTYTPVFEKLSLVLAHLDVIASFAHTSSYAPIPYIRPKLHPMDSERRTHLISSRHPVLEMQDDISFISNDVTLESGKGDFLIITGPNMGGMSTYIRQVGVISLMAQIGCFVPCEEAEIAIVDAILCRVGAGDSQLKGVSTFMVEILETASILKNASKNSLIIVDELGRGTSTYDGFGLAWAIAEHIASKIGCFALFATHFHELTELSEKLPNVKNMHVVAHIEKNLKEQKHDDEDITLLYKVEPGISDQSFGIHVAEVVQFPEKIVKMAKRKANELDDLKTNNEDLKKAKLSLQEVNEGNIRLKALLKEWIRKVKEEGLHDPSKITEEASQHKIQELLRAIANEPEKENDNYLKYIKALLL
T1 sequence (Q03834 1-1242): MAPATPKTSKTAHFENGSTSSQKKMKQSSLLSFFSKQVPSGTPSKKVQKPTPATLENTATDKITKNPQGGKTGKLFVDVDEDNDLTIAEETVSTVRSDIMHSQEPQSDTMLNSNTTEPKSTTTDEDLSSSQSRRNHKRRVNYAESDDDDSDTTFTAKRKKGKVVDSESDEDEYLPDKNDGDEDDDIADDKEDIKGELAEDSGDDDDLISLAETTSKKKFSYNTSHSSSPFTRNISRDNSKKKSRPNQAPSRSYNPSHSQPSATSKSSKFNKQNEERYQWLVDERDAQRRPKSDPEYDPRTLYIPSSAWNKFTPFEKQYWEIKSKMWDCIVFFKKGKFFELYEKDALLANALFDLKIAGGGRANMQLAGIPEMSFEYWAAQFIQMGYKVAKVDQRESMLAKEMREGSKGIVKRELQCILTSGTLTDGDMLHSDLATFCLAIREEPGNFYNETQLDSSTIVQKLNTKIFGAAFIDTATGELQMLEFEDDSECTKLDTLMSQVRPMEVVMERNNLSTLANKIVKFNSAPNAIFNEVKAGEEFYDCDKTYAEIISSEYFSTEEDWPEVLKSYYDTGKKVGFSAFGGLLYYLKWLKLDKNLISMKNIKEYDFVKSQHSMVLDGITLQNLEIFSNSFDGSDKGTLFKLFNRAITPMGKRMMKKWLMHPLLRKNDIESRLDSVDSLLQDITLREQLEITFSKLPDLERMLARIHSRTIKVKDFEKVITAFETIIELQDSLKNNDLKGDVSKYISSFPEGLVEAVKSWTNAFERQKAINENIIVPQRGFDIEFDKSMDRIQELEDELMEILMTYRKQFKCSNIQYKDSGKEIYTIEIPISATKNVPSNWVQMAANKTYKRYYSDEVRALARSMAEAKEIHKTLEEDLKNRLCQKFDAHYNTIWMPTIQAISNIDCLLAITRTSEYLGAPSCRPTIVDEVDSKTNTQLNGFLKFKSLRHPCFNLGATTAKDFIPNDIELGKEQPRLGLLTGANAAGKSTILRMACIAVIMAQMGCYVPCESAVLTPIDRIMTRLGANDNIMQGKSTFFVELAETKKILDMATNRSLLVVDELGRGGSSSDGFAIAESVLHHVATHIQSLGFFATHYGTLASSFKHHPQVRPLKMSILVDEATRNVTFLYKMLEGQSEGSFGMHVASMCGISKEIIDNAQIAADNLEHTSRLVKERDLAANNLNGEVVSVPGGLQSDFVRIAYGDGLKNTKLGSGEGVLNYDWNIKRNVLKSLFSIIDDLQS
Assay: UV cross-linking of [γ-32P]ATP, SDS-PAGE, phosphorimaging
Format: binding
Conditions: labelled compound; no Mg2+, EDTA, pH 8, on ice; Msh2 site at 60 μM ATP, Msh6 site at 1 μM ATP

**Q.** How did the “relative ATP binding” value turn out when `Nc1ncnc2c1ncn2[C@@H]1O[C@H](COP(=O)(O)OP(=O)(O)OP(=O)(O)O)[C@@H](O)[C@H]1O` [ATP] was run?
**A.** Msh2(K694M)–Msh6 mutant complex was only defective for binding ATP to the Msh2 subunit

— paper PMC6254361, “The properties of Msh2–Msh6 ATP binding mutants suggest a signal amplification mechanism in DNA mismatch repair” (The Journal of Biological Chemistry, 2018)
